Experimental data reported in the NIST ThermoML archive (doi:10.1016/j.jct.2016.09.040).
Numbers after ± are expanded uncertainties.

Key:
[1] = mn = molality of the nth substance listed, in mol/kg; conditions: 75 kPa, Liquid; for viscosity: Capillary tube (Ostwald / Ubbelohde) method; for speed of sound: Frequency=3 MHz, Sing-around technique in a fixed-path interferometer; for mass density: Vibrating tube method
[2] = 75 kPa, Liquid; for viscosity: Capillary tube (Ostwald / Ubbelohde) method

[Cl-].[Na+] [sodium chloride] + O
[1]
Conditions | mass density [kg/m3] | speed of sound [m/s] | viscosity [mPa·s]
293.15 K, m1 = 0.1502 | 1004.43 ± 0.6 | 1492.5 ± 4.1 | 1.011 ± 0.031
293.15 K, m1 = 0.3004 | 1010.4 ± 0.6 | 1502 ± 4.1 | 1.018 ± 0.031
293.15 K, m1 = 0.5002 | 1018.11 ± 0.6 | 1514.4 ± 4.1 | 1.034 ± 0.031
293.15 K, m1 = 0.7001 | 1026.19 ± 0.6 | 1526.9 ± 4.1 | 1.059 ± 0.031
298.15 K, m1 = 0.1502 | 1003.21 ± 0.6 | 1506.2 ± 4.1 | 0.891 ± 0.03
298.15 K, m1 = 0.3004 | 1008.89 ± 0.6 | 1515.3 ± 4.1 | 0.908 ± 0.03
298.15 K, m1 = 0.5002 | – | 1527.3 ± 4.1 | 0.933 ± 0.03
298.15 K, m1 = 0.7001 | 1024.85 ± 0.6 | 1539.2 ± 4.1 | 0.95 ± 0.031
303.15 K, m1 = 0.1502 | 1001.74 ± 0.6 | 1518.1 ± 4.1 | 0.791 ± 0.03
303.15 K, m1 = 0.3004 | 1007.39 ± 0.6 | 1527 ± 4.1 | 0.814 ± 0.03
303.15 K, m1 = 0.5002 | 1015.58 ± 0.6 | 1538.6 ± 4.1 | 0.835 ± 0.03
303.15 K, m1 = 0.7001 | 1023.12 ± 0.6 | 1550.2 ± 4.1 | 0.852 ± 0.03
308.15 K, m1 = 0.1502 | 1000.1 ± 0.6 | – | 0.712 ± 0.03
308.15 K, m1 = 0.3004 | 1005.86 ± 0.6 | 1537.1 ± 4.1 | 0.738 ± 0.03
308.15 K, m1 = 0.5002 | – | 1548.3 ± 4.1 | 0.755 ± 0.03
308.15 K, m1 = 0.7001 | 1021.53 ± 0.6 | 1559.5 ± 4.1 | 0.768 ± 0.03
313.15 K, m1 = 0.1502 | 998.234 ± 0.6 | 1537.6 ± 4.1 | 0.645 ± 0.03
313.15 K, m1 = 0.3004 | 1004.13 ± 0.6 | 1545.7 ± 4.1 | 0.665 ± 0.03
313.15 K, m1 = 0.5002 | 1011.76 ± 0.6 | 1556.5 ± 4.1 | 0.687 ± 0.03
313.15 K, m1 = 0.7001 | – | 1567.3 ± 4.1 | 0.701 ± 0.03

O [water]
[2]
Conditions | viscosity [mPa·s]
293.15 K | 1.003 ± 0.031
298.15 K | 0.89 ± 0.03
303.15 K | 0.798 ± 0.03
308.15 K | 0.72 ± 0.03
313.15 K | 0.653 ± 0.03

Conditions | speed of sound [m/s]
[2], 313.15 K, Frequency=3 MHz, Sing-around technique in a fixed-path interferometer | 1529 ± 4.1

O [water] + CCC(N)C(=O)O
[1], m2 = 0
Conditions | mass density [kg/m3] | speed of sound [m/s] | viscosity [mPa·s]
293.15 K | – | – | 1.003 ± 0.031
298.15 K | – | – | 0.89 ± 0.03
303.15 K | – | – | 0.798 ± 0.03
308.15 K | 994.063 ± 0.6 | – | 0.72 ± 0.03
313.15 K | – | 1529 ± 4.1 | 0.653 ± 0.03

O [water] + [Cl-].[Na+]
[1], m2 = 0
Conditions | mass density [kg/m3] | speed of sound [m/s] | viscosity [mPa·s]
293.15 K | – | – | 1.003 ± 0.031
298.15 K | – | – | 0.89 ± 0.03
303.15 K | – | – | 0.798 ± 0.03
308.15 K | 994.063 ± 0.6 | – | 0.72 ± 0.03
313.15 K | – | 1529 ± 4.1 | 0.653 ± 0.03
